# Test results: ChEMBL document CHEMBL1131872, “3-Amidinophenylalanine-based inhibitors of urokinase” (Bioorg Med Chem Lett, 1999)
# How the values were obtained:
# [1] = biological target: T1, Serine protease 1 (Bos taurus, UniProt P00760); assay: Tested for inhibition of trypsin
# T1 sequence (P00760 whole entry): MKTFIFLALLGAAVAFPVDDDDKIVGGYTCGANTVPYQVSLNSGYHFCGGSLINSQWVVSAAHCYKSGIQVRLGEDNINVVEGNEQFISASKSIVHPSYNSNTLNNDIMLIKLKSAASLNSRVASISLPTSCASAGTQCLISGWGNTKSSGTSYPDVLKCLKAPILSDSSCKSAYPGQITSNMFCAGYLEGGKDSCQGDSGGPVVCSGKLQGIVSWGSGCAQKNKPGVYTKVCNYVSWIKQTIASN
# [2] = biological target: T2, Urokinase-type plasminogen activator (Homo sapiens, UniProt P00749); assay: Tested for inhibition of plasminogen activator urokinase (microPa)
# [3] = biological target: T3, Plasminogen (Homo sapiens, UniProt P00747); assay: Tested for inhibition of plasmin
# T3 sequence (P00747 97-580 limits assumed): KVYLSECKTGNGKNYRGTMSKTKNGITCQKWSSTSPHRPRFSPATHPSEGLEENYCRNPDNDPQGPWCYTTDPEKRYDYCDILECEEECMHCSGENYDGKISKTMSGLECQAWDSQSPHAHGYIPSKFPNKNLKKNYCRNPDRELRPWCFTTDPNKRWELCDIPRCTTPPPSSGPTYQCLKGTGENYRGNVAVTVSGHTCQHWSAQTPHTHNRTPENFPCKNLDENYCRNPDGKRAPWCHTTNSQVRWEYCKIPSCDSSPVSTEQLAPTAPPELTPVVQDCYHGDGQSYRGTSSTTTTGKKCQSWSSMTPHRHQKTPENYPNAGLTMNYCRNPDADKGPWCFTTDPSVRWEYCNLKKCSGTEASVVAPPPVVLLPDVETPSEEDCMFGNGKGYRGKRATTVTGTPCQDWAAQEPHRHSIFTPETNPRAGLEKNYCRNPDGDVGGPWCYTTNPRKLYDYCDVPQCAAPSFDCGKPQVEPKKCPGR
# T3 sequence (P00747 581-810 limits assumed): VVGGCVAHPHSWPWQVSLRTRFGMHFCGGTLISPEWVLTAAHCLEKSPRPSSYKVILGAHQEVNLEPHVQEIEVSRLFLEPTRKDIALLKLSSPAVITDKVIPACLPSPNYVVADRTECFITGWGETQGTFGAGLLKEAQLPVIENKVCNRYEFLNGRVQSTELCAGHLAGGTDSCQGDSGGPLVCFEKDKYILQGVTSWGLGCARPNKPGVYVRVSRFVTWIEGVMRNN
# [4] = biological target: T2, Urokinase-type plasminogen activator; assay: Compound was tested for inhibition of plasminogen activator urokinase (microPa).
# [5] = Compound was tested for inhibition of protein Ca
# [6] = biological target: Prothrombin (Homo sapiens, UniProt P00734); assay: Compound was tested for inhibition of thrombin; parameters: species or system Bos taurus
# [7] = Compound was tested for inhibition of sc-tissue plasminogen activator
# [8] = biological target: Coagulation factor X (Bos taurus, UniProt P00743); assay: Compound was tested for inhibition of Coagulation factor X
# Sequence of Coagulation factor X (P00743 41-180 limits assumed): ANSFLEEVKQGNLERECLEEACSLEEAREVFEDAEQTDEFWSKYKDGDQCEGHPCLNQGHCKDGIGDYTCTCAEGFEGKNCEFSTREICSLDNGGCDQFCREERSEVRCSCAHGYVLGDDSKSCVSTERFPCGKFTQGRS
# Sequence of Coagulation factor X (P00743 234-492 limits assumed): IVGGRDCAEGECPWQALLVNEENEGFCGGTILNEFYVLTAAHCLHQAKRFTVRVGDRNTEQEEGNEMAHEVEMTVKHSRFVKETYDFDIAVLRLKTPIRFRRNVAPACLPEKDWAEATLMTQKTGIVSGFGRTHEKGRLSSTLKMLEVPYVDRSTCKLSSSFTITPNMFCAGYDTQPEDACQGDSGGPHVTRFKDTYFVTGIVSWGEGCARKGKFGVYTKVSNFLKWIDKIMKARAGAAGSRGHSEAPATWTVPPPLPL
# [9] = biological target: T2, Urokinase-type plasminogen activator; assay: Compound was tested for inhibition of plasminogen activator urokinase (microPa)
# [10] = biological target: T1, Serine protease 1; assay: Compound was tested for inhibition of trypsin
# [11] = biological target: Plasma kallikrein (Homo sapiens, UniProt P03952); assay: Compound was tested for inhibition of plasma kallikrein
# Sequence of Plasma kallikrein (P03952 20-390 limits assumed): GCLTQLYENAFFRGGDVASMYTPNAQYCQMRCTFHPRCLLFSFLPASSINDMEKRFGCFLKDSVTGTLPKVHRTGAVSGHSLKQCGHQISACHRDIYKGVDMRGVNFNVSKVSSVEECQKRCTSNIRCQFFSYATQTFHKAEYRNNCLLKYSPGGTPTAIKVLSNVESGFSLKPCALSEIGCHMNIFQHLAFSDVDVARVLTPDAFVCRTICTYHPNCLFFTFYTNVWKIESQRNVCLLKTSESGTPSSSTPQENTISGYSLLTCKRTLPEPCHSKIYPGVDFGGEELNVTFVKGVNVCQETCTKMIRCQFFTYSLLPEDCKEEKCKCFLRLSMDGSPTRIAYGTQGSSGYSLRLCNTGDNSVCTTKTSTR
# Sequence of Plasma kallikrein (P03952 391-638 limits assumed): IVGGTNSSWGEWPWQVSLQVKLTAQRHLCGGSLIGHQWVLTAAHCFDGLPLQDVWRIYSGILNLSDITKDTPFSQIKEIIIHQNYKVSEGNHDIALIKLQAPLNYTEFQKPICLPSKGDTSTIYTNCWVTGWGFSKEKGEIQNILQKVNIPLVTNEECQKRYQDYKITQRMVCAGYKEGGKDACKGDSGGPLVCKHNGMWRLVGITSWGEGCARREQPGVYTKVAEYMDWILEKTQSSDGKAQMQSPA
# [12] = biological target: T3, Plasminogen; assay: Compound was tested for inhibition of plasmin
Compound,Ki [1] [nM],Ki [2] [µM],Ki [3] [µM],also measured
CC(C)c1cc(C(C)C)c(S(=O)(=O)NC(Cc2cccc(C(=N)N)c2)C(=O)N2CCNCC2)c(C(C)C)c1 (stereo not drawn),980,12,7.1,–
N=C(N)c1cccc(CC(NS(=O)(=O)c2ccc3ccccc3c2)C(=O)N2CCOCC2)c1 (stereo not drawn),–,58,7.7,–
CC(C)c1cc(C(C)C)c(S(=O)(=O)NC(Cc2cccc(C(=N)N)c2)C(=O)N2CCC(C(=O)O)CC2)c(C(C)C)c1 (stereo not drawn),6400,52,12,–
CC(C)c1cc(C(C)C)c(S(=O)(=O)NC(Cc2cccc(C(=N)N)c2)C(=O)N2CCCC(C(=O)O)C2)c(C(C)C)c1 (stereo not drawn),–,17,8.2,–
N=C(N)c1cccc(CC(NS(=O)(=O)c2ccc3ccccc3c2)C(=O)N2CCCC2)c1 (stereo not drawn),–,–,12,Ki [4]: 73 µM
CC(C)c1cc(C(C)C)c(S(=O)(=O)NC(Cc2cccc(C(=N)N)c2)C(=O)N2CCN(S(C)(=O)=O)CC2)c(C(C)C)c1 (stereo not drawn),620,19,8,–
CCOC(=O)N1CCN(C(=O)[C@H](Cc2cccc(C(=N)N)c2)NS(=O)(=O)c2c(C(C)C)cc(C(C)C)cc2C(C)C)CC1,–,–,–,Ki [5]: 2300 nM; Ki [6]: 490 nM; Ki [7]: 4.9 µM; Ki [8]: 1700 nM; Ki [9]: 410 nM; Ki [10]: 37 nM; Ki [11]: 7.2 µM; Ki [12]: 390 nM
CC(C)c1cc(C(C)C)c(S(=O)(=O)NC(Cc2cccc(C(=N)N)c2)C(=O)N2CCN(C)CC2)c(C(C)C)c1 (stereo not drawn),3000,52,21,–
CC(C)c1cc(C(C)C)c(S(=O)(=O)NC(Cc2cccc(C(=N)N)c2)C(=O)N2CCCC2)c(C(C)C)c1 (stereo not drawn),3900,19,9.6,–
N=C(N)c1cccc(CC(NS(=O)(=O)c2ccc3ccccc3c2)C(=O)N2CCCCCCC2)c1 (stereo not drawn),–,19,7.8,–
N=C(N)c1cccc(CC(NS(=O)(=O)c2ccc3ccccc3c2)C(=O)N2CCCCCC2)c1 (stereo not drawn),740,28,6.6,–

# The remaining compounds from weak to strong by Ki [3], led by results:
Ki [1] [nM],Ki [2] [µM],Ki [3] [µM],Compound,also measured
490,5.4,4.5,CC(C)c1cc(C(C)C)c(S(=O)(=O)NC(Cc2cccc(C(=N)N)c2)C(=O)N2CCOCC2)c(C(C)C)c1 (stereo not drawn),–
–,–,4,CC1CCN(C(=O)C(Cc2cccc(C(=N)N)c2)NS(=O)(=O)c2c(C(C)C)cc(C(C)C)cc2C(C)C)CC1 (stereo not drawn),–
830,7.8,3.2,CC(C)c1cc(C(C)C)c(S(=O)(=O)NC(Cc2cccc(C(=N)N)c2)C(=O)N2CCCCCCC2)c(C(C)C)c1 (stereo not drawn),–
950,4.4,2.8,CC(C)c1cc(C(C)C)c(S(=O)(=O)NC(Cc2cccc(C(=N)N)c2)C(=O)N2CCCCCC2)c(C(C)C)c1 (stereo not drawn),–
1300,5.1,2.6,CC(C)c1cc(C(C)C)c(S(=O)(=O)NC(Cc2cccc(C(=N)N)c2)C(=O)N2CCCCC2)c(C(C)C)c1 (stereo not drawn),–
360,4.8,2.5,CNC(=O)C1CCN(C(=O)C(Cc2cccc(C(=N)N)c2)NS(=O)(=O)c2c(C(C)C)cc(C(C)C)cc2C(C)C)CC1 (stereo not drawn),–
110,–,1.8,COC(=O)N1CCN(C(=O)C(Cc2cccc(C(=N)N)c2)NS(=O)(=O)c2c(C(C)C)cc(C(C)C)cc2C(C)C)CC1 (stereo not drawn),–
500,1.3,1.5,CC(C)c1cc(C(C)C)c(S(=O)(=O)NC(Cc2cccc(C(=N)N)c2)C(=O)N2CCCCC2C(=O)O)c(C(C)C)c1 (stereo not drawn),–
–,1.3,1.4,COC(=O)C1CCN(C(=O)C(Cc2cccc(C(=N)N)c2)NS(=O)(=O)c2c(C(C)C)cc(C(C)C)cc2C(C)C)CC1 (stereo not drawn),–
120,0.96,1.2,CCOC(=O)N1CCN(C(=O)C(Cc2cccc(C(=N)N)c2)NS(=O)(=O)c2c(C(C)C)cc(C(C)C)cc2C(C)C)CC1 (stereo not drawn),–
1400,33,1,COC(=O)C1CCCCN1C(=O)C(Cc1cccc(C(=N)N)c1)NS(=O)(=O)c1c(C(C)C)cc(C(C)C)cc1C(C)C (stereo not drawn),–
360,2.5,1,COC(=O)C1CCCN(C(=O)C(Cc2cccc(C(=N)N)c2)NS(=O)(=O)c2c(C(C)C)cc(C(C)C)cc2C(C)C)C1 (stereo not drawn),–
–,12,0.4,CNC(=O)C1CCCN(C(=O)C(Cc2cccc(C(=N)N)c2)NS(=O)(=O)c2c(C(C)C)cc(C(C)C)cc2C(C)C)C1 (stereo not drawn),–
